Reference: patent publication US4309559A, “Sulphonamides useful as pesticides” (FBC Limited, priority 1977, dated 1982)

Legend:
Type in all cases: in vivo
[1] = tested on: Maize (Zea mays); assay: Soil incorporation (attaclay/sand dust), growth regulatory or herbicidal effects, maize; settings: 504 h, soil incorporation 26 ppm, 21 days, 0=no effect, 100=complete kill, read-out: growth regulatory or herbicidal effect score
How it was run: (§1)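 Scores (0-100, where 100 means complete kill) were given by visual assessment against untreated plants after 21 days in a 22° C controlled environment room with 14 h of 13,000 lux light daily. Seeds had been sown into compost containing the attaclay/sand dust formulation at 26 or 130 ppm w/v.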

[2] = tested on: Oats (Avena sativa); assay: Soil incorporation (attaclay/sand dust), growth regulatory or herbicidal effects, oats; settings: 504 h, soil incorporation 26 ppm, 21 days, 0=no effect, 100=complete kill, read-out: growth regulatory or herbicidal effect score
How it was run: as §1

[3] = tested on: Barnyardgrass (Echinochloa crus-galli); assay: Pre-emergence soil surface spray, barnyardgrass; settings: soil surface spray 2.8 kg/ha, 21 days, 0=no effect, 100=complete kill
Description: (§2) Seeds of the plant species listed below were sown in John Innes I potting compost in aluminium pans, 19 cm long×9.5 cm wide×5.0 cm high, one species per pan. The soil surface was then sprayed with a compound listed below, formulated as a solution in 1:1 by volume aqueous acetone except for the compound of Example 44 which was formulated as an aqueous suspension containing 1000 parts per million of the wetting agent Lissapol NX (nonylphenol/ethylene oxide condensate). Each compound was applied at a rate of 2.8 kg of active ingredient per hectare in 450 liters of spray liquid per hectare. The pans were then watered, and placed in a controlled environment room (22° C., relative humidity 65-85%, 14 hours per day artificial illumination at 17,000 lux) for 21 days. The plants were then visually assessed for any growth regulatory or herbicidal effects. All differences from an untreated control were scored on a scale from 0-100, where 0 signifies no effect and 100 signifies complete kill.

[4] = tested on: Blackgrass (Alopecurus myosuroides); assay: Pre-emergence soil surface spray, blackgrass; settings: soil surface spray 2.8 kg/ha, 21 days, 0=no effect, 100=complete kill
Description: as §2

[5] = tested on: Wheat (Triticum aestivum); assay: Post-emergence foliar spray of monocotyledons, wheat; settings: foliar spray 2.8 kg/ha, 14 days, 0=no effect, 100=complete kill
Experimental: (§3) Seeds of the monocotyledon species listed below were sown in anodised aluminium pans, 19 cm long×9.5 cm wide×5.0 cm deep, containing John Innes I potting compost. They were then watered and placed in a controlled environment room (22° C.; 65-85% relative humidity; 14 hours per day artificial illumination at 17,000 lux). 14 days after sowing, the seedlings were given a foliar spray of the compound of Example 44, formulated as an aqueous suspension together with 2000 ppm of the wetting agent Lissapol NX. The dosage rate was adjusted to be 2.8 kg active ingredient in 450 liters per hectare. After a further 14 days in the controlled environment room, the plants were visually assessed for any growth regulatory or herbicidal effect. All differences from an untreated control were scored on a scale from 0-100 where 0 signifies no effect and 100 signifies complete kill.
(§4) The compounds listed below were tested according to the procedure of Example 66 but including rice (Oryza sativa) as an additional test species.

[6] = tested on: Wild Oat (Avena fatua); assay: Pre-emergence soil surface spray, wild oat; settings: soil surface spray 2.8 kg/ha, 21 days, 0=no effect, 100=complete kill
Description: as §2

[7] = tested on: Rice (Orysae sotiva); assay: Pre-emergence soil surface spray, rice; settings: soil surface spray 2.8 kg/ha, 21 days, 0=no effect, 100=complete kill
Description: as §2

[8] = tested on: Crabgrass (Digitaria sanguinalis); assay: Pre-emergence soil surface spray, crabgrass; settings: soil surface spray 2.8 kg/ha, 21 days, 0=no effect, 100=complete kill
Description: as §2

[9] = tested on: Peas (Pisum sativum); assay: Soil incorporation (attaclay/sand dust), growth regulatory or herbicidal effects, peas; settings: Lathyrus oleraceus, 504 h, soil incorporation 26 ppm, 21 days, 0=no effect, 100=complete kill, read-out: growth regulatory or herbicidal effect score
How it was run: as §1

[10] = tested on: Linseed (Linum usitatissimum); assay: Soil incorporation (attaclay/sand dust), growth regulatory or herbicidal effects, linseed; settings: 504 h, soil incorporation 26 ppm, 21 days, 0=no effect, 100=complete kill, read-out: growth regulatory or herbicidal effect score
How it was run: as §1

[11] = tested on: Barley (Hordeum vulgare); assay: Pre-emergence soil surface spray, barley; settings: soil surface spray 2.8 kg/ha, 21 days, 0=no effect, 100=complete kill
Description: as §2

[12] = tested on: Wheat (Triticum aestivum); assay: Pre-emergence soil surface spray, wheat; settings: soil surface spray 2.8 kg/ha, 21 days, 0=no effect, 100=complete kill
Description: as §2

[13] = tested on: Ryegrass (Lolium perenne); assay: Soil incorporation (attaclay/sand dust), growth regulatory or herbicidal effects, ryegrass; settings: 504 h, soil incorporation 26 ppm, 21 days, 0=no effect, 100=complete kill, read-out: growth regulatory or herbicidal effect score
How it was run: as §1

[14] = tested on: Barnyardgrass (Echinochloa crus-galli); assay: Post-emergence foliar spray of monocotyledons, barnyardgrass; settings: foliar spray 2.8 kg/ha, 14 days, 0=no effect, 100=complete kill
Experimental: as §3, §4

[15] = tested on: Barley (Hordeum vulgare); assay: Post-emergence foliar spray of monocotyledons, barley; settings: foliar spray 2.8 kg/ha, 14 days, 0=no effect, 100=complete kill
Experimental: as §3, §4

[16] = tested on: Mustard (Sinapis alba); assay: Soil incorporation (attaclay/sand dust), growth regulatory or herbicidal effects, mustard; settings: 504 h, soil incorporation 26 ppm, 21 days, 0=no effect, 100=complete kill, read-out: growth regulatory or herbicidal effect score
How it was run: as §1

## CS(=O)(=O)N(CC#N)c1ccc(Cl)c(Cl)c1 [Example 44, N-cyanomethyl-3,4-dichloro-methanesulphonanilide]
[1]
  plant injury at 26 µg/mL: 5%
[2]
  plant injury at 26 µg/mL: 60%
[3]
  growth regulatory or herbicidal effect score: 80
[4]
  growth regulatory or herbicidal effect score: 0
[5]
  growth regulatory or herbicidal effect score: 0
[6]
  growth regulatory or herbicidal effect score: 0
[7]
  growth regulatory or herbicidal effect score: 0
[8]
  growth regulatory or herbicidal effect score: 0
[9]
  pest or weed control at 26 µg/mL: 0%
[10]
  pest or weed control at 26 µg/mL: 20%
[11]
  growth regulatory or herbicidal effect score: 0
[12]
  growth regulatory or herbicidal effect score: 0
[13]
  pest or weed control at 26 µg/mL: 5%
[14]
  growth regulatory or herbicidal effect score: 100
[15]
  growth regulatory or herbicidal effect score: 0
[16]
  pest or weed control at 26 µg/mL: 40%
